Measured values from patent US20250388604A1, “Compounds and Their Use as PDE4 Activators” (Mironid Limited, priority 2022, published 2025).

Assays:
[1] = molecular target: T1, human PDE4D5 (long isoform) (Homo sapiens, UniProt Q08499); experiment: PDE assay, [3H]cAMP two-step radio-assay, PDE4D5 long isoform activation; type: biochemical; details: 100 μM test compound; mean % increase in counts over basal activity
T1 construct: Using Full-Length Human PDE4 Isoforms; Long Forms PDE4D5, PDE4C3, PDE4B1 and Short Form PDE4B2; made in house; cytosol fraction (100,000 g supernatant) of the cell lysate, not purified
T1 sequence (Q08499 1-745 isoform Q08499-6): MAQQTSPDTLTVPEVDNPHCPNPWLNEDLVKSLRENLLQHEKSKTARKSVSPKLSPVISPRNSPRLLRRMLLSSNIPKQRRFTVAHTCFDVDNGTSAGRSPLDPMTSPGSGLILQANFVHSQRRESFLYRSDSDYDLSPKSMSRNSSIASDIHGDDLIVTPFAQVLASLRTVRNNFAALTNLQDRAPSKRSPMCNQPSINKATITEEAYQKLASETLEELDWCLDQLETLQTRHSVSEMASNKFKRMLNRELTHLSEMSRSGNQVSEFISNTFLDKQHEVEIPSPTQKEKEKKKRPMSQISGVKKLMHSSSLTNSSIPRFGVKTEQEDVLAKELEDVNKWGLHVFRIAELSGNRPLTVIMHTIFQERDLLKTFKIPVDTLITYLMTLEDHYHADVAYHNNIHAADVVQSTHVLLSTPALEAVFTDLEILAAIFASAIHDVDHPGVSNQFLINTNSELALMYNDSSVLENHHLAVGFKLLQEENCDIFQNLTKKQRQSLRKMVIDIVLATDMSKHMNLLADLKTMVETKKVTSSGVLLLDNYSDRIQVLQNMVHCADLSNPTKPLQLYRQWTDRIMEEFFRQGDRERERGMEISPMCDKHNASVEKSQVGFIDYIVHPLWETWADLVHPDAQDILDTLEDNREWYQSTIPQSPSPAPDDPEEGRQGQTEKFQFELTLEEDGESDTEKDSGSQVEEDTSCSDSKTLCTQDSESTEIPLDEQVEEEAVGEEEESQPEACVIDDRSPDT
Method: One suitable method of detecting whether or not a compound is capable of serving as an activator of a PDE4 long form is using a two-step radio-assay procedure described in Experiment 1. In summary, the method involves incubating a PDE4 long form with a test small molecule activator, together with [^3H]-labelled cAMP to assess alterations in the breakdown of cAMP to the 5′-adenosine monophosphate (5′-AMP) product. A sample of the reaction mixture from such an incubation is subsequently treated with snake venom 5′-nucleotidase to allow conversion of the nucleotide [^3H]-labelled 5′-AMP to the uncharged nucleoside [^3H]-labelled adenosine, which can be separated and quantified to assess PDE4 activity and the effect of the test compound (Thompson, W. J. and Appleman, M. M. Biochemistry 10: 311-316, 1971, with some modifications as described in: Marchmont, R. J. and Houslay, M. D. Biochem J. 187: 381-92, 1980). […]
The cell lysate containing recombinant PDE4D5 was transferred into a centrifuge tube and placed into an ultracentrifuge (BECKMAN COULTER) and spun at high speed (100,000 g) for 30 minutes at 4° C. The cytosol fraction was then collected and its protein amount determined using a BCA protein assay. […]

[2] = tested on: m-IMCD3 cells expressing PDE4 long forms; experiment: cAMP levels in PGE2-stimulated 3D m-IMCD3 cell culture media; type: cell-based; details: Mus musculus, mIMCD3; 3 μM test compound; compared to 100% for (DMSO + PGE2); read-out: cAMP level (% of PGE2-stimulated)
Method: HEK 293 and MDCK cells (Public Health England, Cell Culture Collections) were maintained in Dulbecco's Modified Eagle's Medium (DMEM) supplemented with 10% (v/v) fetal bovine serum (FBS) (Seralab), 2 mM L-glutamine and 100 U/mL penicillin streptomycin cocktail (ThermoFisher); termed complete media. Clonal HEK 293 cell lines were maintained in complete media supplemented with 0.6 mg/ml G418 (Enzo Life Sciences). Mouse inner medullary collecting duct (m-IMCD3) cells [American Type Culture Collection (ATCC)] were maintained in media consisting of DMEM/Hams F-12 50/50 Mix (DMEM F12; Corning) supplemented with penicillin streptomycin cocktail (100 U/mL) and FBS (10% v/v) (DMEM F12-10% FBS).
Activation of intracellular PDE4 long forms leads to a reduction of both intracellular cAMP and externalised cAMP (Omar et al., PNAS 116: 13320-13329, 2019). This reduction may be measured in the cell culture media supernatant of 3D cystic cell cultures, such as in the m-IMCD3 cell cyst suppression assay described in Experiment 3.
Following the completion of the m-IMCD3 cell cyst suppression assay (Experiment 3), the cAMP level in the assay media from individual or pooled assay wells was measured using a cAMP ELISA kit (Enzo Life Sciences) or a LANCE Ultra cAMP kit (PerkinElmer) according to the manufacturer's instructions.

m-IMCD3 cells = experiment: Inhibition of PGE2-stimulated in vitro cyst formation in m-IMCD3 cells; type: cell-based, mouse; details: Mus musculus, mIMCD3, 144 h, 3 μM; mean cyst area, 100% for (DMSO + PGE2) and 0% for DMSO control; 6 days of culture; read-out: % Cyst area after incubation with 3 μM test compound
How it was run: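 Mean cyst area after 6 days, expressed relative to DMSO+PGE2 (100%) and DMSO alone (0%), from z-stack images. Mouse m-IMCD3 spheroids grew in collagen I/Matrigel gels and received PGE2 (100 nM final) with test compound (0.1% DMSO) starting 18–24 h post-plating, media refreshed at day 2 or 3.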

[3] = molecular target: T2, human PDE4B2 (short isoform) (Homo sapiens, UniProt Q07343); experiment: PDE assay, [3H]cAMP two-step radio-assay, PDE4B2 short isoform activation; type: biochemical; details: 100 μM test compound; mean % increase in counts over basal activity
T2 construct: the full length human PDE4B2 short isoform; made in house
T2 sequence (Q07343 1-564 isoform Q07343-2): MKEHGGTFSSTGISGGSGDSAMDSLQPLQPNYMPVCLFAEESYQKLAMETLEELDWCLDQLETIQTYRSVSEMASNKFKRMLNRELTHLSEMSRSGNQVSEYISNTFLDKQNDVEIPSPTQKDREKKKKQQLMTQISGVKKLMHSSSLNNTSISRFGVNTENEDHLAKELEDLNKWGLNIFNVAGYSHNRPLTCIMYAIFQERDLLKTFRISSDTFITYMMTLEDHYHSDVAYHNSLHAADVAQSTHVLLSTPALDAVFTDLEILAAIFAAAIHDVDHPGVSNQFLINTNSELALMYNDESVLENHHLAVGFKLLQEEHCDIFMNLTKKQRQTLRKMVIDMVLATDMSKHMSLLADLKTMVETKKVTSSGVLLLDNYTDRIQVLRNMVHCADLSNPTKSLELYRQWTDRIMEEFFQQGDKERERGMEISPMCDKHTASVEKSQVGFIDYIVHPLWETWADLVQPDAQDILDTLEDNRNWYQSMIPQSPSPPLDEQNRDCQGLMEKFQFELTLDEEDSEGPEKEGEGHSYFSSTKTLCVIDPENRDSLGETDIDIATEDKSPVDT

% increase in PDE4B2 (short isoform) activity at 100 μM [3] [%]	Structure (SMILES)	% increase in PDE4D5 (long isoform) activity at 100 μM [1] [%]	activity at 3 µM [2] [%]	activity at 3 µM (m-IMCD3 cells) [%]
–	O=S(=O)(NC1CCCC1)N1CCc2nc(N3C4CCC3CNC4)sc2C1 [Example 108, 2-(3,8-diazabicyclo[3.2.1]octan-8-yl)-N-cyclopentyl-6,7-dihydrothiazolo[5,4-c]pyridine-5(4H)-sulfonamide]	22	53	–
−15	O=C(CC1CCCC1)N1CCc2nc(N3CCN4CCC[C@H]4C3)sc2C1 [Example 271, (S)-2-cyclopentyl-1-(2-(hexahydropyrrolo[1,2-a]pyrazin-2(1H)-yl)-6,7-dihydrothiazolo[5,4-c]pyridin-5(4H)-yl)ethan-1-one]	28	42	4
